“Also recorded” adds a separate entry of the source. One block for each compound: values may come before it.
What was measured:
Assay type in all cases: cell-based
[1] = test system: capacitated human spermatozoa; assay: Drug effect on acrosome reaction; set-up: Acrosome reaction: unit not given here; conditions: for Acrosome reaction (AR) stimulated by inducer: inducer alone, stimulation over control; for AR stimulated by A23187 in the presence of inhibitor / stimulated AR observed in the presence of progesterone and hZP-3, effect of inhibitor: Table 1; for stimulated AR observed in the presence of progesterone and hZP-3, effect of inhibitor: progesterone- and hZP-3-stimulated AR
Protocol: (§1) Sperm capacitation—Isolated sperm samples were incubated for 3 hours at 36° C. in HAM's F-10 medium supplemented with 0.3% BSA as in Rotem et al., 1990a, b
Drug effect on acrosome reaction—To test the involvement of MAPK cascade proteins on acrosome reaction the following drugs were added to the incubation medium: Progesterone (Sigma-Aldrich Corp., St Louis, Mo., USA), hZP-3 (human zona pellucida protein 3, obtained from P. Salling, N.C., USA) diluted in MOCK (F-10 medium containing 0.1% DMSO, Biological Industries, Beth Ha'Emek, Israel), A23187 (calcium ionophore, Calbiochem, La Jolla, Calif., USA), PD98059 (Biomol, Plymouth Meeting, Pa., USA), SB203580 (Biomol, Plymouth Meeting, Pa., USA) and GF109203X (PKC inhibitor, Calbiochem, La Jolla, Calif., USA). Acrosome reaction was determined as described elsewhere (Rotem et al., 1992).

human spermatozoa = assay: Drug effect on sperm motility (progressive flagellar motility)
Protocol: FIG. 8 is a graphic representation of the effect of progesterone and MAPK inhibitors on human spermatozoa motility. Human spermatozoa (5×10^7/ml) were incubated with PD98059 (ERK inhibitor, at 50 μM, FIG. 8, marked with “PD”) and SB203580 (p38 inhibitor, at 50 μM, FIG. 8, marked with “SB”), in the presence or absence of progesterone (at 5 μg/ml, FIG. 8, marked with “P”) for the indicated time. Percent motile spermatozoa was determined in aliquots of 10 μl. Results are expressed as mean ±SEM of three experiments.
Isolation of human sperm samples—Human semen were obtained upon informed consent from healthy donors having normal sperm density, motility and morphology (according to the World Health Organization (WHO) guidelines of 1992) following 3 days of sexual abstinence. Sperm samples were collected into sterile 50 ml tubes and semen was liquefied for 1 hour at 36° C., washed twice with HAM's F-10 medium (Biological Industries, Beth Ha'Emek, Israel) supplemented with 0.3% bovine serum albumin (BSA) and separated from non-sperm cells by a Percoll gradient centrifugation (Sigma-Aldrich Corp., St Louis, Mo., USA) essentially as described elsewhere (Rotem et al., 1990a, b). The resultant sperm sample contained approx. 50×10^6 sperm/ml.
as §1
Drug effect on sperm motility—To test the effect of MAPK inhibitors and progesterone on sperm motility the following drugs were added to the incubation medium: PD98059 (ERK inhibitor, Biomol, Plymouth Meeting, Pa., USA), SB203580 (p38 inhibitor, Biomol, Plymouth Meeting, Pa., USA) and progesterone (Sigma-Aldrich Corp., St Louis, Mo., USA). Progressive flagellar motility was determined as described elsewhere (Rotem et al., 1990a, b).

ERK 1 and ERK 2 = assay: Determination of phosphorylated ERK by in-gel kinase assay; conditions: human spermatozoa stimulated by progesterone 5 μg/ml, bands of 44 and 42 kDa, data not shown
Protocol: Determination of phosphorylated ERK by in-gel kinase assay—To further substantiate its role in spermatozoa maturation the phosphorylation state of ERK was determined by in-gel kinase assay as described elsewhere (Naor et al., 1999). […] Mitogen-activated protein (MAP) kinase pathways: regulation and physiological functions. Endocr. Rev. 22: 153-183] are active in human spermatozoa.

ERK = assay: Western blot with antibody against phosphorylated (active) ERK; conditions: capacitated human spermatozoa, 0.2 M vanadate, 60 min, FIG. 4a
Protocol: (§2) FIGS. 4a-f are autoradiograms depicting expression and activity of MAPK proteins in human spermatozoa. LβT2 cells were treated for 60 min with 50 ng/ml 12-O-Tetradecanoylphorbol-13-acetate (TPA, FIGS. 4a-f, lane 1) and capacitated human spermatozoa were treated for 60 min with 0.2 M vanadate (FIGS. 4a-f, lane 3) or were remained untreated (FIGS. 4a-f, lane 2). Cell lysates were subsequently prepared and subjected to Western blot analysis with antibodies directed at the active, phosphorylated form of ERK, p38 and JNK (FIGS. 4a, 4c and 4e, respectively), or with antibodies directed at the unphosphorylated form of ERK, p38 and JNK (FIGS. 4b, 4d and 4f, respectively).
(§3) Western blot analysis—Western blot analysis was effected with antibodies directed at ERK, JNK and p38 proteins as well as with antibodies directed at the phosphorylated forms of these MAPK proteins (Sigma Rehovot, Israel). The assay was performed as previously described (Yung et al., 1997).
(§4) Molecular identification of MAPK cascade proteins in human spermatozoa—Capacitated human spermatozoa cell lysate were generated as described and subjected to Western blot analysis using MAPK antibodies specific to either the phosphorylated or the general forms of ERK, p38 and INK proteins. […]

p38 = assay: Western blot with antibody against phosphorylated (active) p38; conditions: capacitated human spermatozoa, 0.2 M vanadate, 60 min, FIG. 4c
Protocol: as §2, §3, §4

Compound: CNc1ccc2oc(C[C@H]3O[C@@]4(CC[C@H]3C)O[C@H]([C@H](C)C(=O)c3ccc[nH]3)[C@H](C)C[C@H]4C)nc2c1C(=O)O [A23187]
Acrosome reaction ([1]; A23187 10 μM, no inhibitor (Control)): 51
Acrosome reaction (AR) stimulated by inducer [1]: 140%

Compound: CN(C)CCCn1cc(C2=C(c3c[nH]c4ccccc34)C(=O)NC2=O)c2ccccc21 [GF109203X]
AR stimulated by A23187 in the presence of inhibitor [1]: persisted
Acrosome reaction ([1]; GF109203X 100 nM, no inducer (Control)): 19
Acrosome reaction ([1]; GF109203X 100 nM, with A23187 10 μM): 48
Acrosome reaction ([1]; GF109203X 100 nM, with MOCK): 28
Acrosome reaction ([1]; GF109203X 100 nM, with hZP3 50 ng/ml): 18
Acrosome reaction ([1]; GF109203X 100 nM, with progesterone 5 μg/ml): 15
stimulated AR observed in the presence of progesterone and hZP-3, effect of inhibitor [1]: markedly inhibited

Compound: COc1cccc(-c2cc(=O)c3ccccc3o2)c1N [PD98059]
progressive flagellar motility decreased to (human spermatozoa; human spermatozoa, 50 μM PD98059, transient, FIG. 8): 50%
AR stimulated by A23187 in the presence of inhibitor [1]: persisted
Acrosome reaction ([1]; PD98059 5 μM, no inducer (Control)): 17
Acrosome reaction ([1]; PD98059 5 μM, with A23187 10 μM): 50
Acrosome reaction ([1]; PD98059 5 μM, with MOCK): 25
Acrosome reaction ([1]; PD98059 5 μM, with hZP3 50 ng/ml): 29
Acrosome reaction ([1]; PD98059 5 μM, with progesterone 5 μg/ml): 18
stimulated AR observed in the presence of progesterone and hZP-3, effect of inhibitor [1]: markedly inhibited

phosphorylation state of ERK (in-gel kinase assay) (ERK 1 and ERK 2): exhibited two phosphorylated bands
Compound: CC(=O)[C@H]1CC[C@H]2[C@@H]3CCC4=CC(=O)CC[C@]4(C)[C@H]3CC[C@]12C [Progesterone, progesterone]
effect on progressive flagellar motility (human spermatozoa; human spermatozoa, 5 μg/ml progesterone, FIG. 8): no effect
Acrosome reaction (AR) stimulated by inducer [1]: 50%
Acrosome reaction ([1]; progesterone 5 μg/ml, no inhibitor (Control)): 31

Compound: C[S+]([O-])c1ccc(-c2nc(-c3ccncc3)c(-c3ccc(F)cc3)[nH]2)cc1 (centres unmarked) [SB203580]
SB203580-induced increase in progressive flagellar motility (human spermatozoa; 50 μM SB203580 co-introduced with 5 μg/ml progesterone, FIG. 8 SB+P): completely abolished
sperm motility (percent motile spermatozoa), FIG. 8 legend (human spermatozoa; SB203580 50 μM in the presence of progesterone 5 μg/ml): normal motility
sperm motility (percent motile spermatozoa), FIG. 8 legend (human spermatozoa; human spermatozoa 5×10^7/ml, SB203580 50 μM): significant increase
increase in progressive flagellar motility (human spermatozoa; human spermatozoa, 50 μM SB203580, FIG. 8): over 120%
AR stimulated by A23187 in the presence of inhibitor [1]: persisted
non-specific increase in AR stimulated by MOCK, effect of inhibitor ([1]; MOCK-stimulated AR): inhibited
Acrosome reaction ([1]; SB203580 20 μM, no inducer (Control)): 17
Acrosome reaction ([1]; SB203580 20 μM, with A23187 10 μM): 49
Acrosome reaction ([1]; SB203580 20 μM, with MOCK): 15
Acrosome reaction ([1]; SB203580 20 μM, with hZP3 50 ng/ml): 28
Acrosome reaction ([1]; SB203580 20 μM, with progesterone 5 μg/ml): 11
stimulated AR observed in the presence of progesterone and hZP-3, effect of inhibitor [1]: markedly inhibited

Compound: [O]=[V]([O-])([O-])[O-] [vanadate]
phosphorylated ERK (Western blot signal) (ERK): could be detected only following treatment; also recorded: increased band intensity
phosphorylated form of p38 (Western blot signal) (p38): regardless of vanadate treatment

Reference: patent US20050090474A1, “Methods and compositions for enhancing and inhibiting fertilization” (priority 2002, published 2005)
